# Where two headings read alike, the source gives them in different places.
# Columns and labels:
# [1] = system: M. abscessus subsp. abscessus CIP 104536; experiment: MIC according to CLSI guidelines; details: Mycobacteroides abscessus, CIP104536, read-out: Minimal Inhibitory Concentration (MIC)
# Method: Vials with M. abscessus suspensions were stored at −80° C. Cultures on solid medium were grown on Mueller Hinton II agar (BD), supplemented with 10% OADC and 0.5% glycerol for 10 days at 37° C. with 5% CO2.
# [2] = system: M. abscessus subsp. abscessus CIP 104536; experiment: Time-kill kinetics assay; type: cell-based
# Method: Briefly, M. abscessus cultures were exposed to antimicrobial drugs at 4-fold increasing concentrations for 7 days at 37° C. under shaking conditions at 96 rpm. […] The drug concentrations ranged from 0.063 to 256 mg/L for both compounds. […] At day 1, 3 and 7 during drug exposure, samples were collected, centrifuged at 14000 xg to avoid anti-NTM drug carry over, serially diluted (10-fold, 10^0-10^7) and subcultured onto solid medium. […] The lower limit of detection was 5 cfu/mL (log 0.7). All experiments were performed in duplicate. Time-kill curves, as well as concentration-effect curves were generated.
# [3] = system: Bacille Calmette Guerin (BCG); type: cell-based, Mycobacterium bovis; details: disk: 15 μg of omadacycline
# [4] = Intra-pulmonary steady-state concentrations (plasma, ELF, alveolar cells) after multiple IV doses in healthy adult subjects; type: in vivo, human; details: human, in vivo
# Method: The remaining 20 subjects received tigecycline as 1 intravenous dose of 100 mg administered as a 30 minute infusion at t=0, followed by 6 intravenous doses of 50 mg administered as 30 minute infusions at t=12, 24, 36, 48, 60, and 72 hours. A study completion visit was conducted on the day following the final test article dose. There was a final follow-up assessment 7 to 14 days following the subject's last dose of test article which may be completed by telephone contact or other interactive technology unless an examination was needed to evaluate adverse events or abnormalities noted at the study completion visit.
# Plasma PK samples were collected pre-dose and at 0.5, 1, 1.5, 2, 3, 4, 6, 8, 12 and 24 hours post-dose on day 4. […] One BAL sample was collected from each subject on day 4. Subjects were randomized to one of the following collection times: 0.5, 1, 2, 4, 8, 12 or 24 hours post-dose.
# [5] = system: slow-growing NTM isolates; experiment: MIC (CLSI broth dilution), all slow-growing NTM isolates; type: cell-based, nontuberculous mycobacteria; details: small number of SGM isolates
# [6] = MIC by broth microdilution in CAMHB, clinical isolates; type: cell-based, Mycobacterium chelonae; details: for MIC: read-out: MIC
# [7] = Alveolar Macrophages (AM) concentration (mean ± SD)
# [8] = Epithelial lining fluid (ELF) concentration (mean ± SD)
# [9] = Plasma concentration (mean ± SD)
# [10] = Ratio of Omadacycline Concentrations in Alveolar Cells to Plasma (Mean, SD)
# [11] = Ratio of Omadacycline Concentrations in Epithelial Lining Fluid to Plasma (Mean, SD)
compound,measurement,setting,value
"CN(C)c1cc(CNCC(C)(C)C)c(O)c2c1C[C@H]1C[C@H]3C(N(C)C)C(O)=C(C(N)=O)C(=O)[C@@]3(O)C(O)=C1C2=O (stereo partly drawn) [Omadacycline, (4aS,5aR,12aS)-4,7-bis(dimethylamino)-3,10,12,12a-tetrahydroxy-9-((neopentylamino)methyl)-1,11-dioxo-1,4,4a,5,5a,6,11,12a-octahydrotetracene-2-carboxamide]",MIC,[1],4 µg/mL
same,concentration for 1 log mycobacterial killing,[2]; after 7 days of exposure,4.0 mg/L
same,concentration for 2 log mycobacterial killing,[2]; after 7 days of exposure,4.8 mg/L
same,concentration for stasis (concentration-effect curve),[2]; after 7 days of exposure,3.3 mg/L
same,concentrations achieving elimination,"[2]; time-kill, at day 3-7",no elimination was achieved
same,concentration showing inhibition of mycobacterial growth,"[2]; time-kill, up to 7 days exposure",4 mg/L
same,Results/Observations (growth),[3],Markedly decreased growth around
same,"Free-drug AUC72-96, Plasma (Median)",[4],9610 ng·h/mL
same,AUC,"[4]; AUCmean, Alveolar Cells (AC)",302000 ng·h/mL
same,AUC,"[4]; AUCmean, Epithelial Lining Fluid (ELF)",17200 ng·h/mL
same,AUC,"[4]; AUCmean, Plasma",11700 ng·h/mL
same,AUC,"[4]; AUCmedian, Alveolar Cells (AC)",292000 ng·h/mL
same,AUC,"[4]; AUCmedian, Epithelial Lining Fluid (ELF)",16700 ng·h/mL
same,AUC,"[4]; AUCmedian, Plasma",11800 ng·h/mL
same,concentration at 0.5 h,[4]; [7],14300 ± 9300 ng/mL
same,concentration at 1 h,[4]; [7],12800 ± 8480 ng/mL
same,concentration at 2 h,[4]; [7],10800 ± 7590 ng/mL
same,concentration at 4 h,[4]; [7],18000 ± 7170 ng/mL
same,concentration at 8 h,[4]; [7],12300 ± 4700 ng/mL
same,concentration at 12 h,[4]; [7],12300 ± 4610 ng/mL
same,concentration at 24 h,[4]; [7],10400 ± 4040 ng/mL
same,concentration at 0.5 h,[4]; [8],1730 ± 1010 ng/mL
same,concentration at 1 h,[4]; [8],2250 ± 720 ng/mL
same,concentration at 2 h,[4]; [8],1510 ± 940 ng/mL
same,concentration at 4 h,[4]; [8],950 ± 330 ng/mL
same,concentration at 8 h,[4]; [8],580 ± 190 ng/mL
same,concentration at 12 h,[4]; [8],610 ± 290 ng/mL
same,concentration at 24 h,[4]; [8],410 ± 130 ng/mL
same,Kp,[4]; Penetration Ratio: total-drug ELF AUC72-96 to free-drug plasma AUC72-96 (Median),1.93
same,Kp,[4]; Penetration ratio AC:Plasma based on AUCmean,25.8
same,Kp,[4]; Penetration ratio AC:Plasma based on AUCmedian,24.8
same,Kp,[4]; Penetration ratio ELF:Plasma based on AUCmean,1.47
same,Kp,[4]; Penetration ratio ELF:Plasma based on AUCmedian,1.42
same,concentration at 0.5 h,[4]; [9],1800 ng/mL
same,concentration at 1 h,[4]; [9],890 ng/mL
same,concentration at 2 h,[4]; [9],930 ng/mL
same,concentration at 4 h,[4]; [9],590 ng/mL
same,concentration at 8 h,[4]; [9],560 ng/mL
same,concentration at 12 h,[4]; [9],420 ng/mL
same,concentration at 24 h,[4]; [9],270 ng/mL
same,Kp at 0.5 h,[4]; [10],8.12 ± 5.95
same,Kp at 1 h,[4]; [10],13.8 ± 7.38
same,Kp at 2 h,[4]; [10],12.3 ± 6.57
same,Kp at 4 h,[4]; [10],34.7 ± 15.1
same,Kp at 8 h,[4]; [10],23.1 ± 11.2
same,Kp at 12 h,[4]; [10],29 ± 8.78
same,Kp at 24 h,[4]; [10],40.3 ± 10.3
same,Kp at 0.5 h,[4]; [11],0.95 ± 0.56
same,Kp at 1 h,[4]; [11],2.72 ± 1.26
same,Kp at 2 h,[4]; [11],1.5 ± 0.61
same,Kp at 4 h,[4]; [11],1.79 ± 0.49
same,Kp at 8 h,[4]; [11],1.07 ± 0.45
same,Kp at 12 h,[4]; [11],1.44 ± 0.57
same,Kp at 24 h,[4]; [11],1.65 ± 0.86
same,AUC,"[4]; Total-drug AUC72-96, ELF (Median)",18500 ng·h/mL
same,Kp,[4]; concentration in epithelial lining fluid relative to plasma,> 1.4
same,Cmax,"[4]; iv, 100 mg",2260 ± 760 ng/mL
same,Vd,"[4]; iv, 100 mg",165 ± 58 L
same,Kp,[4]; mean concentration in alveolar cells relative to plasma,~25
same,Kp,[4]; mean concentration in epithelial lining fluid higher than in plasma,≥ 0.4
same,activity against SGM isolates (in words),[5],MIC values above the highest concentration evaluated
same,MIC90,"[6]; 22 clinical isolates, read-out: MIC90",0.25 µg/mL
same,MIC,"[6]; isolate No. 1, MC 7323",0.125 µg/mL
same,MIC,"[6]; isolate No. 2, MC 7534",0.03 µg/mL
same,MIC,"[6]; isolate No. 3, MC 7368",0.03 µg/mL
same,MIC,"[6]; isolate No. 4, MC 7514",0.06 µg/mL
same,MIC,"[6]; isolate No. 5, MC 7584",0.06 µg/mL
same,MIC,"[6]; isolate No. 6, MC 7192",0.015 µg/mL
same,MIC,"[6]; isolate No. 7, MC 7466",0.03 µg/mL
same,MIC,"[6]; isolate No. 8, MC 7533",0.25 µg/mL
same,MIC,"[6]; isolate No. 9, MC 7579",0.125 µg/mL
same,MIC,"[6]; isolate No. 10, MC 7614",0.125 µg/mL
same,MIC,"[6]; isolate No. 11, MC 7414",0.125 µg/mL
same,MIC,"[6]; isolate No. 12, MC 7313",0.125 µg/mL
same,MIC,"[6]; isolate No. 13, MC 7281",0.25 µg/mL
same,MIC,"[6]; isolate No. 14, MC 7328",0.015 µg/mL
same,MIC,"[6]; isolate No. 15, MC 7294",0.25 µg/mL
same,MIC,"[6]; isolate No. 16, MC 14-S-03",0.06 µg/mL
same,MIC,"[6]; isolate No. 17, MC 14-S-04",0.06 µg/mL
same,MIC,"[6]; isolate No. 18, MC 14-S-05",0.125 µg/mL
same,MIC,"[6]; isolate No. 19, MC 14-S-06",0.03 µg/mL
same,MIC,"[6]; isolate No. 20, MC 14-S-07",0.06 µg/mL
same,MIC,"[6]; isolate No. 21, MC 35757",0.125 µg/mL
same,MIC,"[6]; isolate No. 22, MC 7302",0.25 µg/mL

# From patent US20250332178A1, “METHODS OF TREATING MYCOBACTERIAL INFECTIONS USING TETRACYCLINE COMPOUNDS” (priority 2018, published 2025)
